Several values for one entry are separate records, joined by “and”; a condition that tells them apart may be missing. Equal values may be shown once. Where a SMILES comes first, the peptide text is derived from it.
Key:
Mu-type opioid receptor [1] = target: Mu-type opioid receptor (Bos taurus, UniProt P79350)
Mu-type opioid receptor [2] = target: Mu-type opioid receptor (Mus musculus, UniProt P42866)
Sequence of Mu-type opioid receptor (Mus musculus, UniProt P42866) (P42866 whole entry): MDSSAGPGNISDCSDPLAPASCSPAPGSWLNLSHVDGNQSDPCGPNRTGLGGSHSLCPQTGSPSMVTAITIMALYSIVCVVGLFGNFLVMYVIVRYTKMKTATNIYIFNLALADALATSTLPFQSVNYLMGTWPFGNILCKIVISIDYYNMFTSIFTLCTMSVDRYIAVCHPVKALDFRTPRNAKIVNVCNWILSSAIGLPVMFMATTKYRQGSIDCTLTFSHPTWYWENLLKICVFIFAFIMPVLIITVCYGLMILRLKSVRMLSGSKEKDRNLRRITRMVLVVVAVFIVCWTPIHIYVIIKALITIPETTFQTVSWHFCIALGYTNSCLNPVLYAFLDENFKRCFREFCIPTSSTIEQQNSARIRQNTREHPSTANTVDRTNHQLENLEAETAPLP

Sequence of Mu-type opioid receptor (Bos taurus, UniProt P79350) (P79350 whole entry): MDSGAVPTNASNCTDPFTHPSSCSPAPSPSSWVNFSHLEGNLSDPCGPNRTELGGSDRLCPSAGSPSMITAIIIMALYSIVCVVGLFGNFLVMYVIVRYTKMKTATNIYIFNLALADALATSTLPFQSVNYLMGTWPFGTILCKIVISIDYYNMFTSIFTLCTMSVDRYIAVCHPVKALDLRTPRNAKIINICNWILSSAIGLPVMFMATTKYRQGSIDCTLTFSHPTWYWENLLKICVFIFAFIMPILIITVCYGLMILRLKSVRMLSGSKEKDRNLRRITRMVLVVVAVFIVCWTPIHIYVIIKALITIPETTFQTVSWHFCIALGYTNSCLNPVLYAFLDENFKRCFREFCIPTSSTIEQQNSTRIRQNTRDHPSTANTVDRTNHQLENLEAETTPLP

SMILES	Ki (Mu-type opioid receptor [1])	Ki (Mu-type opioid receptor [2])
NC(=O)[C@H](Cc1ccccc1)NC(=O)[C@H](Cc1ccccc1)NC(=O)[C@@H]1CCCN1C(=O)[C@@H](N)Cc1ccc(O)cc1	0.43 nM and 4 nM	–
C=CCN1CCC23c4c5ccc(O)c4O[C@@H]2C(=NNC(=O)c2ccccc2)CCC3(O)C1C5 (some centres not stated)	–	0.2 nM and 0.12 nM
COc1ccc2c3c1O[C@H]1C(=O)CC[C@@]4(O)[C@@H](C2)N(CC2CC2)CC[C@]314	–	20.3 nM and 21.2 nM
CC(C)C[C@H](NC(=O)[C@H](Cc1ccccc1)NC(=O)CNC(=O)CNC(=O)[C@@H](N)Cc1ccc(O)cc1)C(=O)N[C@@H](CCCN=C(N)N)C(=O)N[C@@H](CCCN=C(N)N)C(=O)N[C@@H](CCC(N)=O)C(=O)N[C@@H](Cc1ccccc1)C(=O)N[C@@H](CCCCN)C(=O)N[C@H](C(=O)N[C@H](C(=O)N[C@H](C(=O)O)[C@@H](C)O)C(C)C)C(C)C [(Dynorphin)2-[2-(2-{2-[2-(2-{2-[2-Amino-3-(4-hydroxy-phenyl)-propionylamino]-acetylamino}-acetylamino)-3-phenyl-propionylamino]-4-methyl-pentanoylamino}-5-guanidino-pentanoylamino)-5-guanidino-pentanoylamino]-3-methyl-pentanoic acid]	–	39.8 nM and 11.4 nM
CC[C@H](C)[C@H](NC(=O)[C@H](C)NC(=O)[C@H](CC(N)=O)NC(=O)[C@H](CCCCN)NC(=O)[C@H](Cc1ccccc1)NC(=O)[C@H](CC(C)C)NC(=O)[C@@H](NC(=O)[C@@H](NC(=O)[C@H](CC(C)C)NC(=O)[C@@H]1CCCN1C(=O)[C@@H](NC(=O)[C@H](CCC(N)=O)NC(=O)[C@H](CO)NC(=O)[C@H](CCCCN)NC(=O)[C@H](CCC(=O)O)NC(=O)[C@H](CO)NC(=O)[C@@H](NC(=O)[C@H](CCSC)NC(=O)[C@H](Cc1ccccc1)NC(=O)CNC(=O)CNC(=O)[C@@H](N)Cc1ccc(O)cc1)[C@@H](C)O)[C@@H](C)O)C(C)C)[C@@H](C)O)C(=O)N[C@H](C(=O)N[C@@H](CCCCN)C(=O)N[C@@H](CC(N)=O)C(=O)N[C@@H](C)C(=O)N[C@@H](Cc1cnc[nH]1)C(=O)N[C@@H](CCCCN)C(=O)N[C@@H](CCCCN)C(=O)NCC(=O)N[C@@H](CCC(N)=O)C(=O)O)C(C)C [Beta-Endorphin] (H-YGGFMTSEKSQTPLVTLFKNAIVKNAHKKGQ-OH)	–	10.9 nM and 3.22 nM
NC(=O)CNC(=O)[C@H](Cc1c[nH]c2ccccc12)NC(=O)[C@@H]1CCCN1C(=O)[C@@H](N)Cc1ccc(O)cc1 [CAS_132632] (H-YPWG-NH2)	–	18 nM and 44.7 nM
CC(C)C[C@H](NC(=O)[C@H](Cc1ccccc1)NC(=O)CNC(=O)[C@@H](CO)NC(=O)[C@@H](N)Cc1ccc(O)cc1)C(=O)N[C@H](C(=O)O)[C@@H](C)O [DSLET-OH]	–	20 nM and 10.8 nM
CC[C@H](C)[C@H](NC(=O)[C@H](CCCNC(=N)N)NC(=O)[C@H](CCCNC(=N)N)NC(=O)[C@H](CC(C)C)NC(=O)[C@H](Cc1ccccc1)NC(=O)CNC(=O)CNC(=O)[C@@H](N)Cc1ccc(O)cc1)C(=O)N[C@@H](CCCNC(=N)N)C(=O)N1CCC[C@H]1C(=O)N[C@@H](CCCCN)C(=O)N[C@@H](CC(C)C)C(=O)N[C@@H](CCCCN)C(=O)N[C@@H](Cc1c[nH]c2ccccc12)C(=O)N[C@@H](CC(=O)O)C(=O)N[C@@H](CC(N)=O)C(=O)N[C@@H](CCC(N)=O)C(=O)O [Dynorphin A (1-17)]	–	12.8 nM and 3.32 nM
NC(=O)[C@H](Cc1ccccc1)NC(=O)[C@H](Cc1c[nH]c2ccccc12)NC(=O)[C@@H]1CCCN1C(=O)[C@@H](N)Cc1ccc(O)cc1 [Endomorphin 1]	0.67 nM and 3.2 nM	–
C=CCN1CC[C@]23CCCCC2[C@H]1Cc1ccc(O)cc13 (some centres not stated) [Levallorphan]	–	0.97 nM and 0.96 nM
CN1CCC23c4c5ccc(O)c4O[C@H]2[C@@H](OC2OC(C(=O)O)C(O)C(O)C2O)C=C[C@H]3[C@H]1C5 (some centres not stated) [Morphine 6-glucuronide]	–	2.35 nM and 2.47 nM
CSCC[C@H](NC(=O)[C@H](Cc1ccccc1)NC(=O)CNC(=O)CNC(=O)[C@@H](N)Cc1ccc(O)cc1)C(=O)N[C@@H](CCCNC(=N)N)C(=O)N[C@@H](Cc1ccccc1)C(=O)O [enkephalin-Met, Arg(6)-Phe(7)] (H-YGGFMRF-OH)	–	30 nM and 13.4 nM

Source: BindingDB's records for PubMed 9694962 (Memorial Sloan-Kettering Cancer Center, 1998)
